Here are results for one compound from article PMC6894882 (PLoS Neglected Tropical Diseases, 2019).

Data set [1] in a line: in vitro. The settings on record: dog.
Data set [2] is described as follows: in vitro. The conditions noted are these: mouse, plasma, pH 7.4.
A further data set concerns Chikungunya virus. The experiment in a line: microbe, parasite or virus in culture. The class given is cell-based. Set-up: SI50: unit not given beside the values.
Data set [3] can be described thus: in vitro. The conditions noted are these: mouse.
For another data set, the system named is Dengue Virus 2. The experiment in a line: microbe, parasite or virus in culture. The class given is cell-based. Set-up: SI50: unit not given beside the values.
The nature of data set [4]: in vitro. The settings on record: African green monkey.
Another data set in a line: physchem. The conditions noted are these: 20 °C, pH 7.4, aqueous buffer, kinetic from dmso stock.
The next data set relates to HeLa cells. The conditions noted are these: cited from earlier work.
Data set [5] relates to Ebola virus (Zaire strain). The experiment in a line: microbe, parasite or virus in culture. The class given is cell-based. Set-up: SI50: unit not given beside the values.
The target in a further data set is CYP1A2 (Homo sapiens, UniProt P05177). The experiment in a line: biochemical.
Sequence of CYP1A2 (P05177 whole entry): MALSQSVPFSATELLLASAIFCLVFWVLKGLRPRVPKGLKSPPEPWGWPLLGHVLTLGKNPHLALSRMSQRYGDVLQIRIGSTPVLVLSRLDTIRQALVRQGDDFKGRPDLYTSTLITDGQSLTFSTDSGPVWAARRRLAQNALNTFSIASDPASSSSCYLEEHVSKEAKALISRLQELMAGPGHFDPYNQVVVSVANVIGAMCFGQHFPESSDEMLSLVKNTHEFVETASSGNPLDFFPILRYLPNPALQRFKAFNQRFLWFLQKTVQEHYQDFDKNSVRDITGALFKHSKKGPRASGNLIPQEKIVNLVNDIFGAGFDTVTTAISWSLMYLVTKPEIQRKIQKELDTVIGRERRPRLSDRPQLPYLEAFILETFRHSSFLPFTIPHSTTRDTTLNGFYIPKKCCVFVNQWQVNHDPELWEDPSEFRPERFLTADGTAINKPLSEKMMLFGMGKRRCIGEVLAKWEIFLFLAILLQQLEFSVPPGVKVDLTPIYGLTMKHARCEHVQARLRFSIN
Data set [6] is described as follows: in vitro. The conditions noted are these: human, Caco-2, pH 7.4.
Another data set concerns the target CYP3A4 (Homo sapiens, UniProt P08684). The experiment in a line: biochemical.
The test system of another data set is cytokines and chemokines. Further details: species or system mice. The conditions noted are these: mouse, in vivo.

Some results are limits rather than exact numbers.

Sequence of CYP3A4 (P08684 whole entry): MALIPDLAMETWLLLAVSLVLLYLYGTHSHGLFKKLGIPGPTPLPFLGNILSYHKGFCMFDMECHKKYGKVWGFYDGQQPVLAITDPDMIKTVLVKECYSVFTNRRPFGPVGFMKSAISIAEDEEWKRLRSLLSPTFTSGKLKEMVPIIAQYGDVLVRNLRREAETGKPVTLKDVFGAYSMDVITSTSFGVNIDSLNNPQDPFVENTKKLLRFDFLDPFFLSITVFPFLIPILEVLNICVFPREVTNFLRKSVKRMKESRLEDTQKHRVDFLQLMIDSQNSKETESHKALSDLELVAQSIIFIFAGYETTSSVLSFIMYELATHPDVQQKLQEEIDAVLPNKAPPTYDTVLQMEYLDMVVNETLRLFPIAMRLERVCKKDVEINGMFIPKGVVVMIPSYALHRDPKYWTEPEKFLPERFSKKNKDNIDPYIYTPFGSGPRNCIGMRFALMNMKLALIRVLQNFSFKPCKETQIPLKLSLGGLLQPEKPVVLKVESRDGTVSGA

Turning to `COc1ccc2nc3cc(Cl)ccc3c(Nc3cc(CN4CCCC4)c(O)c(CN4CCCC4)c3)c2n1` [Pyronaridine, 4-[(7-Chloro-2-methoxybenzo[b][1, 5]naphthyridin-10-yl)amino]-2,6-bis(1-pyrrolidinylmethyl)phenol phosphate (1:4)], the CC50 in “in vitro [1]” was 3.2 µM; in the data set “in vitro [3]”, more than 40 µM; in “in vitro [4]” (CC50) it was 3.2 µM; in “in vitro [4]” (approximate CC50), approximately 3 µM; in the data set on HeLa cells, 3.1 µM. The same compound showed a fraction unbound in the data set “in vitro [2]” of 0.035. In addition, the SI50 was 1 in the data set with Chikungunya virus, 1 in the data set on Dengue Virus 2 and 0 in data set [5]. Also, the EC50 in the data set with Chikungunya virus (Chikungunya virus, Vero 76) was 3.2 µM; in the data set with Dengue Virus 2 (Dengue virus, Vero 76) it was 3.2 µM; in data set [5] (Zaire ebolavirus, Vero 76), more than 1.3 µM. The compound also gave a solubility in the data set “physchem” of 168 µM. The “anti-EBOV activity (Zaire strain)” value in data set [5] is “lack of antiviral activity”. The IC50 was more than 50 µM at CYP1A2 and 42.9 µM against CYP3A4. The same compound yielded a Papp A→B in “in vitro [6]” of 6.46 ×10⁻⁶ cm/s. Moreover, the Papp B→A in the data set “in vitro [6]” is 4.8 ×10⁻⁶ cm/s. The efflux ratio in the data set “in vitro [6]” was 0.74. The IFN-α/β concentrations entry in the data set on cytokines and chemokines is given as “below the level of detection”. Moreover, the “cytokine/chemokine levels over vehicle or naïve controls” value in the data set with cytokines and chemokines is “did not elicit a statistically significant increase”.
